These results are taken from patent US20200129630A1, “METHODS FOR TREATING CANCER” (BicycleRD Limited, priority 2018, published 2020).

For data set [1] the following is noted: rat; previously reported; cited from earlier work.
For data set [2] the following is noted: monkey; previously reported; cited from earlier work.
The conditions of data set [3]: [^3H]-DM1 200 μg/kg IV, rat; cited from earlier work.
The conditions of data set [4]: human; previously reported; cited from earlier work.
Data set [5] is described as follows: Intrinsic clearance in cryopreserved hepatocytes. Format: in vitro ADME. The procedure: Accumulation of the majority of the radioactivity was found in the kidney and bladder irrespective of the labelled peptide dose; this is indicative of either non-saturable excretion or proteolysis followed by excretion through the kidneys. Furthermore, the intrinsic clearance of BT1718 and its Bicycle component, N241 was low when measured in cryopreserved hepatocytes. […] Unconjugated DM1, when radiolabelled, (as [[^3H]-DM1 (91 μCi/kg, 200 μg/kg, IV), was reported to distribute rapidly and extensively to the lungs, liver, kidney, spleen, heart, gastrointestinal tract, and adrenal glands in the rat. The major route of excretion of DM1 was through the bile/faeces, with a minimal amount excreted in the urine, a completely different distribution to BT1718 and its metabolites with little and short lived accumulation seen in other organs such as heart, liver, GI and lungs which would imply that these organs maybe spared systemic toxicity.

For data set [6] the following is noted: in vitro immunogenicity tests, n=50.
From the text: These include in vitro tissue microarray in human, rat and monkey tissues and in vitro and in vivo assessment of immunogenicity. In vivo assessments include single dose toxicity in mice and rats, multiple dose range finding studies in mice, rats, dogs and monkeys (non-GLP) and GLP-compliant multiple dose studies in rats and monkeys consisting of 28-day on study phase with a 28-day recovery period.
The subject of data set [7] is MMP15, MMP16, MMP24, MMP1, Pro-MMP1, MMP2. Description: Binding to related MMP family members. Here is the method:
(§1) Bicycle drug conjugates (BDCs) with a variety of linkers and cytotoxic payloads were prepared which retained binding to MT1.
(§2) BT1718 is a BDC that binds to MT1-MMP and upon cleavage of its disulphide linker, releases the cytotoxic tubulin inhibitor, DM1 (also referred to as DM1-SH).

For data set [8], the system named is cell migration or invasion. Description: Cell migration or invasion. It is filed as cell-based. The procedure:
as §1

Another data set has as its target MT1-MMP (Homo sapiens, UniProt P50281). Description: Effect on catalytic (proteolytic) activity of MT1-MMP. Format: biochemical. Particulars: in vitro. The procedure:
as §1, §2

For data set [9], the system named is catalytic domain of MT1-MMP. Description: Binding to catalytic domain of MT1-MMP. Here is the method: as §1, §2
The next data set has as its system MMP1, MMP2 and MMP9. Description: Effect on related MMP catalytic activity. It is filed as biochemical. Here is the method:
as §1

For data set [10], the system named is MT1 MMP-expressing NSCLC PDX models. Description: MT1-MMP-expressing NSCLC PDX models, docetaxel-sensitive and -resistant. Particulars: 60 mg/m^2 once weekly. Format: in vivo. From the text:
Furthermore, BT1718 produced an anti-tumor effect against MT1 MMP-expressing NSCLC PDX models irrespective of their sensitivity to the SOC chemotherapeutic docetaxel. […] The PDX models confirm that MT1-MMP expression is necessary for BT1718 anti-tumor activity.

The next data set relates to NMB selected tumors. The settings on record: cited from earlier work.
Data set [11] concerns HER2 positive breast cancer. Particulars: third-line, HER2 positive population; cited from earlier work.
In another data set the test system is NSCLC. Particulars: second-line treatment, PD-1 checkpoint blockade; cited from earlier work.

Read-outs that look alike come from different tables or passages of the source. Numbered stars: 1 amine (or outer) side, 2 acyl side, 3 side chain; on linkers, the order of the positions; unused ones are H or OH. Bridge positions count the residues as written; N and C are the ends. Square brackets hold non-standard residues; d marks the D form. Peptide text beside a SMILES is read from it. 1Nal = N[C@@H](Cc1cccc2ccccc12)C(=O)O; TBMB = c1c(C[*:1])cc(C[*:3])cc1C[*:2]; Tle = CC(C)(C)[C@H](N)C(=O)O; βAla = NCCC(=O)O; Sar = CNCC(=O)O

As to `COc1cc2cc(c1Cl)N(C)C(=O)C[C@H](OC(=O)[C@H](C)N(C)C(=O)CCS)[C@]1(C)O[C@H]1[C@H](C)[C@@H]1C[C@@](O)(NC(=O)O1)[C@H](OC)/C=C/C=C(\C)C2` [DM1], the unbound fraction in data set [1] is on record as 3%; in data set [2], 7%; in data set [4], 7%. Moreover, the “major route of excretion” value in [3] is recorded as “bile/faeces”.
As for `C[C@H](NC(=O)CN(C)C(=O)CN(C)C(=O)CN(C)C(=O)CN(C)C(=O)CN(C)C(=O)CN(C)C(=O)CN(C)C(=O)CN(C)C(=O)CN(C)C(=O)CN(C)C(=O)CCN)C(=O)N[C@H]1CSCc2cc3cc(c2)CSC[C@H](NC(=O)[C@@H](C)NC(=O)[C@H](Cc2cccc4ccccc24)NC(=O)[C@H](CCC(=O)O)NC(=O)[C@H](CC(N)=O)NC(=O)[C@@H](C)NC1=O)C(=O)N[C@@H](CCC(=O)O)C(=O)N[C@@H](CC(=O)O)C(=O)N[C@@H](Cc1ccccc1)C(=O)N[C@@H](Cc1ccc(O)cc1)C(=O)N[C@@H](CC(=O)O)C(=O)N[C@@H](C(C)(C)C)C(=O)N[C@H](C(N)=O)CSC3` [N241] (H-[βAla][Sar][Sar][Sar][Sar][Sar][Sar][Sar][Sar][Sar][Sar]AC[dA]NE[1Nal][dA]CEDFYD[Tle]C-NH2; linker 13-19-26 via TBMB; N-terminus and C-terminus assumed), the intrinsic clearance entry in data set [5] is “low”. In data set [6], the “positive responses in donor cohort” value is on record as 2%. Moreover, the “selectivity over other related-MMP hemopexin domains” value in [7] is listed as “over 200 fold”. Besides, the “binding toward closely related MMP family members” value in [7] (MMP15, MMP16, MMP24, MMP1, Pro-MMP1, MMP2) was “no binding”. Further, the “impact on cell migration or invasion” value in data set [8] is on record as “no direct impact”. The “impact on the catalytic activity of the protease” value on MT1-MMP is given as “no direct impact”. Also, in data set [9], the “binding to the catalytic domain” value is on record as “no binding” and the “selectivity over catalytic domain of MT1-MMP” value is reported as “at least 50 fold”. The “impact on related MMP catalytic activity” value in the data set with MMP1, MMP2 and MMP9 is reported as “no direct impact”.
With `CC(=O)O[C@@]12CO[C@@H]1C[C@H](O)[C@@]1(C)C(=O)[C@H](O)C3=C(C)[C@@H](OC(=O)[C@H](O)[C@@H](NC(=O)OC(C)(C)C)c4ccccc4)C[C@@](O)([C@@H](OC(=O)c4ccccc4)[C@H]21)C3(C)C` [docetaxel], the anti-tumor effect result in [10] is “regression only in the docetaxel-sensitive model”.
As to “CDX-011: Antibody-Drug Conjugate (ADC) against glycoprotein NMB”, the ORR in the data set with NMB selected tumors is 30%.
Take T-DM1: the ORR in [11] was 31%.
“atezolizumab: PD-1 checkpoint blockade agent”: the ORR entry with NSCLC was “around 20%”.
For “nivolumab: PD-1 checkpoint blockade agent”, in the data set with NSCLC, the ORR result is “around 20%”.
As for “pembrolizumab: PD-1 checkpoint blockade agent”, the ORR result in the data set with NSCLC is reported as “around 20%”.
